Data reported in US10344025B2, “GLS1 inhibitors for treating disease” (Board of Regents, The University of Texas System, priority 2014, dated 2019).
pEC50, pIC50: −log10 of the molar value. Like-named read-outs stand apart in the source and are kept apart here.

Columns and labels:
A549 cells = test: Proliferation Assay (A549 viability, Cell Titer Fluor, 72 hours); assay type: cell-based
Method in brief: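 Cell Titer Fluor fluorescence after 72 h compound treatment (0.5% DMSO, 37 °C, 5% CO2) of A549 cells plated 24 h earlier at 1000/well. Four-parameter logistic fitting gave IC50.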

[1] = target: purified recombinant human GAC (GLS1) (Homo sapiens (Human), UniProt O94925); test: GLS1 Enzymatic Activity Assay (dual-coupled enzymatic assay, resorufin/Amplex UltraRed readout); assay type: biochemical;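 further: glutamate from GAC coupled via glutamate oxidase and peroxidase to resorufin, read as fluorescence (ex 530, em 590 nm) kinetically or at 20 min, four-parameter logistic IC50 fit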
Sequence of purified recombinant human GAC (GLS1) (O94925 other isoform, or with tags, fused parts or gaps): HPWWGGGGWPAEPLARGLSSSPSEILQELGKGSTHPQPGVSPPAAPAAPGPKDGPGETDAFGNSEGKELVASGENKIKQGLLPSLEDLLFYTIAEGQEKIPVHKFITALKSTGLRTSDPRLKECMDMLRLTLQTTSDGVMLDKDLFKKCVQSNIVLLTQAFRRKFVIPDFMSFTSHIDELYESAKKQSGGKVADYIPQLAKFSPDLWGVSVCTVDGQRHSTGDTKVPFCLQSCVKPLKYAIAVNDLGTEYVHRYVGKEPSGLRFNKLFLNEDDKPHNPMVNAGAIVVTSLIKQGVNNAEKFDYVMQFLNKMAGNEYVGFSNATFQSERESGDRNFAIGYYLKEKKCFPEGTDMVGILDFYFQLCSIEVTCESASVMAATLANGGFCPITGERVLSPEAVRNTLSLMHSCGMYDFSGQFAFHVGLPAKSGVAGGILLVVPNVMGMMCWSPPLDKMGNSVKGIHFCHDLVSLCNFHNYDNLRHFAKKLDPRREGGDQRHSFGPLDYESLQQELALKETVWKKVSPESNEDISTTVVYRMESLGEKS

SMILES | pEC50 (A549 cells; Homo sapiens, A549, 72 h) | pIC50 [1] | pEC50 (A549 cells)
O=C(Nc1nnc(CCC(F)Cn2cc(C(=O)NCc3cc(OC(F)(F)F)ccc3F)nn2)s1)c1cccnc1 (stereo not drawn) [Example 577, N-(5-(3-fluoro-4-(4-((2-fluoro-5-(trifluoromethoxy)benzyl)carbamoyl)-1H-1,2,3-triazol-1-yl)butyl)-1,3,4-thiadiazol-2-yl)nicotinamide] | 5.30 to 6.30 | > 7.00 | –
O=C(NCc1cncc(C(F)(F)F)c1)c1cn(CC(F)CCc2nnc(C(=O)NCCC(F)(F)F)s2)nn1 (stereo not drawn) [Example 512, 5-{3-fluoro-4-[4-({[5-(trifluoromethyl)pyridin-3-yl]methyl}carbamoyl)-1H-1,2,3-triazol-1-yl]butyl}-N-(3,3,3-trifluoropropyl)-1,3,4-thiadiazole-2-carboxamide] | 6.30 to 7.00 | 6.30 to 7.00 | –
O=C(Cc1ccccn1)Nc1nnc(CC[C@H](F)Cn2cc(C(=O)NCc3cc(C(F)(F)F)ccn3)nn2)s1 [Example 238, (S)-1-(2-fluoro-4-(5-(2-(pyridin-2-yl)acetamido)-1,3,4-thiadiazol-2-yl)butyl)-N-((4-(trifluoromethyl)pyridin-2-yl)methyl)-1H-1,2,3-triazole-4-carboxamide] | 6.30 to 7.00 | > 7.00 | –
O=C(NCc1cccc(C(F)(F)F)c1)c1cn(CCCCn2cc(C(=O)NCC3CCOCC3)nn2)nn1 [Example 120, N-(oxan-4-ylmethyl)-1-{4-[4-({[3-(trifluoromethyl)phenyl]methyl}carbamoyl)-1H-1,2,3-triazol-1-yl]butyl}-1H-1,2,3-triazole-4-carboxamide] | 5.30 to 6.30 | 6.30 to 7.00 | –
O=C(NCc1cccc(OC(F)(F)F)c1)c1cn(CCCCn2cc(C(=O)NCC3CC4CCC3O4)nn2)nn1 (stereo not drawn) [Example 115, N-{7-oxabicyclo[2.2.1]heptan-2-ylmethyl}-1-{4-[4-({[3-(trifluoromethoxy)phenyl]methyl}carbamoyl)-1H-1,2,3-triazol-1-yl]butyl}-1H-1,2,3-triazole-4-carboxamide] | – | 5.30 to 6.30 | 5.30 to 6.30
O=C(Cc1cccc(OC(F)(F)F)c1)Nc1nnc(CCC(F)Cn2cc(C(=O)NC3CC3)nn2)s1 (stereo not drawn) [Example 534, N-cyclopropyl-1-[2-fluoro-4-(5-{2-[3-(trifluoromethoxy)phenyl]acetamido}-1,3,4-thiadiazol-2-yl)butyl]-1H-1,2,3-triazole-4-carboxamide] | 6.30 to 7.00 | > 7.00 | –
CNC(=O)c1nnc(CCC(F)Cn2cc(C(=O)NCc3cccc(OC(F)(F)F)c3)nn2)s1 (stereo not drawn) [Example 504, 5-{3-fluoro-4-[4-({[3-(trifluoromethoxy)phenyl]methyl}carbamoyl)-1H-1,2,3-triazol-1-yl]butyl}-N-methyl-1,3,4-thiadiazole-2-carboxamide] | 6.30 to 7.00 | > 7.00 | –
COCCNC(=O)c1nnc(CCCCn2cc(C(=O)NCc3cccc(C(F)(F)F)c3)nn2)s1 [Example 7, N-(2-methoxyethyl)-5-(4-(4-(3-(trifluoromethyl)benzylcarbamoyl)-1H-1,2,3-triazol-1-yl)butyl)-1,3,4-thiadiazole-2-carboxamide] | 6.30 to 7.00 | 6.30 to 7.00 | –
O=C(NCc1cc(C(F)(F)F)ccn1)c1cn(CCCCn2cc(C(=O)NCC3CCCCO3)nn2)nn1 (stereo not drawn) [Example 114] | 5.30 to 6.30 | 5.30 to 6.30 | –
O=C(NCc1cc(OC(F)(F)F)ccc1F)c1cn(CC(F)CCc2nnc(C(=O)NCc3cc(C(F)(F)F)ccn3)s2)nn1 (stereo not drawn) [Example 451, 5-{3-fluoro-4-[4-({[2-fluoro-5-(trifluoromethoxy)phenyl]methyl}carbamoyl)-1H-1,2,3-triazol-1-yl]butyl}-N-{[4-(trifluoromethyl)pyridin-2-yl]methyl}-1,3,4-thiadiazole-2-carboxamide] | > 7.00 | > 7.00 | –
Cc1ccc(CC(=O)Nc2cn(CC(F)CCn3cc(C(=O)NCc4cc(OC(F)(F)F)ccc4F)nn3)nn2)cn1 (stereo not drawn) [Example 343, 1-(3-fluoro-4-{4-[2-(6-methylpyridin-3-yl)acetamido]-1H-1,2,3-triazol-1-yl}butyl)-N-{[2-fluoro-5-(trifluoromethoxy)phenyl]methyl}-1H-1,2,3-triazole-4-carboxamide] | > 7.00 | > 7.00 | –
O=C(Cc1ccc(Cl)cc1F)Nc1cn(CCCCn2cc(C(=O)NCc3ccccn3)nn2)nn1 [Example 366, 1-(4-{4-[2-(4-chloro-2-fluorophenyl)acetamido]-1H-1,2,3-triazol-1-yl}butyl)-N-(pyridin-2-ylmethyl)-1H-1,2,3-triazole-4-carboxamide] | 5.30 to 6.30 | 6.30 to 7.00 | –
O=C(Cc1ccccn1)Nc1cn(CCCCn2cc(C(=O)NCC3CCCCC3)nn2)nn1 [Example 285, N-(cyclohexylmethyl)-1-(4-{4-[2-(pyridin-2-yl)acetamido]-1H-1,2,3-triazol-1-yl}butyl)-1H-1,2,3-triazole-4-carboxamide] | 5.30 to 6.30 | 5.30 to 6.30 | –
CNC(=O)c1cn(CCCCc2ccc(NC(=O)Cc3cccc(Br)c3)nn2)nn1 [Example 542, 1-(4-{6-[2-(3-bromophenyl)acetamido]pyridazin-3-yl}butyl)-N-methyl-1H-1,2,3-triazole-4-carboxamide] | 6.30 to 7.00 | > 7.00 | –
O=C(CN1CC(F)C1)Nc1cn(CC(F)CCn2cc(C(=O)NCc3ccccn3)nn2)nn1 (stereo not drawn) [Example 389, 1-(3-fluoro-4-{4-[2-(3-fluoroazetidin-1-yl)acetamido]-1H-1,2,3-triazol-1-yl}butyl)-N-(pyridin-2-ylmethyl)-1H-1,2,3-triazole-4-carboxamide] | < 5.30 | 5.30 to 6.30 | –
O=C(Cc1ccccn1)Nc1nnc(CC[C@H](F)Cn2cc(C(=O)NCc3cc(OC(F)(F)F)ccc3F)nn2)s1 [Example 197, (S)-1-(2-fluoro-4-(5-(2-(pyridin-2-yl)acetamido)-1,3,4-thiadiazol-2-yl)butyl)-N-(2-fluoro-5-(trifluoromethoxy)benzyl)-1H-1,2,3-triazole-4-carboxamide] | > 7.00 | > 7.00 | –
O=C(NCc1cc(C(F)(F)F)ccn1)c1cn(CCC(F)Cn2cc(C(=O)NCc3cccc(OC(F)(F)F)c3)nn2)nn1 (stereo not drawn) [Example 439, 1-{3-fluoro-4-[4-({[3-(trifluoromethoxy)phenyl]methyl}carbamoyl)-1H-1,2,3-triazol-1-yl]butyl}-N-{[4-(trifluoromethyl)pyridin-2-yl]methyl}-1H-1,2,3-triazole-4-carboxamide] | > 7.00 | > 7.00 | –
O=C(NCc1cc(C2CC2)ccn1)c1cn(CCC(F)Cn2cc(C(=O)NCc3cccc(OC(F)(F)F)c3)nn2)nn1 (stereo not drawn) [Example 148, 1-[4-(4-({[4-cyclopropylpyridin-2-yl)methyl]carbamoyl}-1H-1,2,3-triazol-1-yl)-2-fluorobutyl]-N-{[3-(trifluoromethoxy)phenyl]methyl}-1H-1,2,3-triazole-4-carboxamide] | > 7.00 | > 7.00 | –
O=C(NCc1cc(C(F)(F)F)ccn1)c1cn(CCC(F)Cn2cc(C(=O)NCc3ccccc3)nn2)nn1 (stereo not drawn) [Example 450, N-benzyl-1-{2-fluoro-4-[4-({[4-(trifluoromethyl)pyridin-2-yl]methyl}carbamoyl)-1H-1,2,3-triazol-1-yl]butyl}-1H-1,2,3-triazole-4-carboxamide] | 6.30 to 7.00 | > 7.00 | –
CNC(=O)c1cn(CC(F)CCc2nnc(NC(=O)Cc3ccccn3)s2)nn1 (stereo not drawn) [Example 519, 1-(2-fluoro-4-{5-[2-(pyridin-2-yl)acetamido]-1,3,4-thiadiazol-2-yl}butyl)-N-methyl-1H-1,2,3-triazole-4-carboxamide] | 5.30 to 6.30 | 6.30 to 7.00 | –
O=C(NCc1cccc(OC(F)(F)F)c1)c1cn(CCCCc2nnc(C(=O)NCc3cccc(OC(F)(F)F)c3)s2)nn1 [Example 46, N-{[3-(trifluoromethoxy)phenyl]methyl}-5-{4-[4-({[3-(trifluoromethoxy)phenyl]methyl}carbamoyl)-1H-1,2,3-triazol-1-yl]butyl}-1,3,4-thiadiazole-2-carboxamide] | > 7.00 | > 7.00 | –
O=C(Cc1cccc(OC(F)(F)F)c1)Nc1nnc(CCC(F)Cn2cc(C(=O)NCc3cncc(C(F)(F)F)c3)nn2)s1 (stereo not drawn) [Example 496, 1-[2-fluoro-4-(5-{2-[3-(trifluoromethoxy)phenyl]acetamido}-1,3,4-thiadiazol-2-yl)butyl]-N-{[5-(trifluoromethyl)pyridin-3-yl]methyl}-1H-1,2,3-triazole-4-carboxamide] | > 7.00 | > 7.00 | –
CNC(=O)c1cn(CCCCc2ccc(NC(=O)CN3CCC(c4ccccc4)CC3)nn2)nn1 [Example 215, N-methyl-1-(4-(6-(2-(4-phenylpiperidin-1-yl)acetamido)pyridazin-3-yl)butyl)-1H-1,2,3-triazole-4-carboxamide] | 5.30 to 6.30 | 6.30 to 7.00 | –
O=C(Cc1cccc(OC(F)(F)F)c1)Nc1cn(CCCCn2cc(C(=O)NCC3CCCCC3)nn2)nn1 [Example 286, N-(cyclohexylmethyl)-1-[4-(4-{2-[3-(trifluoromethoxy)phenyl]acetamido}-1H-1,2,3-triazol-1-yl)butyl]-1H-1,2,3-triazole-4-carboxamide] | 6.30 to 7.00 | > 7.00 | –
O=C(NCc1cc(OC(F)(F)F)ccc1F)c1cn(CCC(F)Cn2cc(C(=O)NCc3ncccc3F)nn2)nn1 (stereo not drawn) [Example 427, 1-{2-fluoro-4-[4-({[2-fluoro-5-(trifluoromethoxy)phenyl]methyl}carbamoyl)-1H-1,2,3-triazol-1-yl]butyl}-N-[(3-fluoropyridin-2-yl)methyl]-1H-1,2,3-triazole-4-carboxamide] | > 7.00 | > 7.00 | –
O=C(NCc1cc(OC(F)(F)F)ccc1F)c1cn(CCC(F)Cn2cc(C(=O)N[C@@H](CO)c3ccccc3)nn2)nn1 (stereo partly drawn) [Example 453, 1-{2-fluoro-4-[4-({[2-fluoro-5-(trifluoromethoxy)phenyl]methyl}carbamoyl)-1H-1,2,3-triazol-1-yl]butyl}-N-[(1R)-2-hydroxy-1-phenylethyl]-1H-1,2,3-triazole-4-carboxamide] | 6.30 to 7.00 | > 7.00 | –
O=C(NCc1cc(OC(F)(F)F)ccc1F)c1cn(CCCCc2ccc(NC(=O)C3CC3)nn2)nn1 [Example 591] | 6.30 to 7.00 | > 7.00 | –
